Earlier results as cited in US6908953B2, “Polymerizable compositions based on epoxides” (ESPE Dental AG, priority 1998, dated 2005).

Columns and labels:
[1] = prior-art epoxide monomers
[2] = in vitro tests, prior-art epoxide monomers

## O=C(OCC1CCC2OC2C1)C1CCC2OC2C1 (stereo not shown) [3,4-epoxycyclohexyl-methyl 3,4-epoxycyclohexanecarboxylate]
[1]
  Cytotoxicity: highly cytotoxic
[2]
  Mutagenic properties: mutagenic properties

## O=C(CCCCC(=O)OC1CCC2OC2C1)OC1CCC2OC2C1 (stereo not shown) [bis(3,4-epoxycyclohexyl adipate)]
[1]
  Cytotoxicity: highly cytotoxic
[2]
  Mutagenic properties: mutagenic properties
